In PubChem BioAssay (NCI):
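48-hour exposure; five concentrations; linearly interpolated endpoints. TGI denotes the concentration required for complete inhibition of growth.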

Columns and labels:
Experiment in all cases: growth of human tumour cells (NCI), 48 h
[1] = test system: IGROV1 ovarian
[2] = test system: SF-295 CNS
[3] = test system: KM20L2 colon
[4] = test system: COLO 205 colon
[5] = test system: SNB-78 CNS
[6] = test system: EKVX NSCLC
[7] = test system: LXFL 529 NSCLC
[8] = test system: M14 melanoma
[9] = test system: CAKI-1 renal
[10] = test system: U251 CNS
[11] = test system: OVCAR-3 ovarian
[12] = test system: HT29 colon
[13] = test system: M19-MEL melanoma
[14] = test system: HCC-2998 colon
[15] = test system: SK-MEL-5 melanoma
[16] = test system: NCI-H460 lung
[17] = test system: RPMI-8226 leukemia
[18] = test system: DMS 114 small cell lung
[19] = test system: OVCAR-5 ovarian
[20] = test system: ACHN renal
[21] = test system: HOP-92 NSCLC
[22] = test system: A549 NSCLC
[23] = test system: NCI-H226 lung
[24] = test system: SK-OV-3 ovarian
[25] = test system: OVCAR-8 ovarian
[26] = test system: NCI-H23 lung
[27] = test system: A498 renal
[28] = test system: HCT-116 colon
[29] = test system: SNB-75 CNS
[30] = test system: HOP-62 NSCLC
[31] = test system: SN12C renal
[32] = test system: HOP-18 NSCLC
[33] = test system: RXF 393 renal
[34] = test system: UACC-257 melanoma
[35] = test system: KM12 colon
[36] = test system: XF 498 CNS
[37] = test system: SF-539 CNS
[38] = test system: UO-31 renal
[39] = test system: LOX IMVI melanoma
[40] = test system: MALME-3M melanoma
[41] = test system: NCI-H522 lung
[42] = test system: UACC-62 melanoma
[43] = test system: HL-60(TB) leukemia
[44] = test system: DMS 273 small cell lung
[45] = test system: SK-MEL-28 melanoma
[46] = test system: CCRF-CEM leukemia
[47] = test system: OVCAR-4 ovarian
[48] = test system: TK-10 renal
[49] = test system: SW-620 colon
[50] = test system: 786-0 renal
[51] = test system: K-562 leukemia
[52] = test system: SNB-19 CNS
[53] = test system: SF-268 CNS
[54] = test system: DLD-1 colon

Measured: TGI

CCCCCCCCCCn1cccc1/C=C/c1ccc(/C=C/c2cccn2CCCCCCCCCC)cc1
> 100 µM: all assays above
